Assay results published in patent US8759376B2, “Isoxazole and isothiazole compounds useful in the treatment of inflammation” (The Feinstein Institute for Medical Research, priority 2003, dated 2014).
Values joined by “and” are separate entries in the source; they are usually repeats but may differ in a detail not shown here. Identical values can stand only once.

Tests used:
TNF = TNF production by LPS-stimulated primary human macrophages (ELISA); format: cell-based; conditions: LPS 100 ng/ml, 4 hours
Procedure: Human macrophage cultures were prepared as follows. Buffy coats were collected from the blood of healthy individual donors to the Long Island Blood Bank Services (Melville, N.Y.). Primary blood mononuclear cells were isolated by density-gradient centrifugation through Ficoll/Hypaque (Pharmacia, N.J.), suspended (8×10^6 cells/ml) in RPMI 1640 medium supplemented with 10% heat inactivated human serum (Gemini Bio-Products, Inc., Calabasas, Calif.), and seeded in flasks (PRIMARIA; Beckton and Dickinson Labware, Franklin Lakes, N.J.). After incubation for 2 hours at 37° C., adherent cells were washed extensively, treated briefly with 10 mM EDTA, detached, resuspended (10^6 cells/ml) in RPMI medium (10% human serum), supplemented with human macrophage colony stimulating factor (MCSF; Sigma Chemical Co., St. Louis, Mo.; 2 ng/ml), and seeded onto 24-well tissue culture plates (PRIMARIA; Falcon) (10^6 cells/well). Cells were allowed to differentiate for 7 days in the presence of MCSF. On day 7 the cells were washed 3 times with 1× Dulbecco's phosphate buffered saline (PBS, GibcoBRL, Life Technologies, Rockville, Md.), fresh medium devoid of MCSF was added, and experiments performed as indicated. […]

female BALB/c mice = assay: Localized Shwartzman reaction model, ear immunostaining; format: in vivo; conditions: i.p.; ears 5 hours after LPS challenge; compared to vehicle-treated animals
Procedure: The localized Shwartzman reaction was performed as previously described (C. Sunderkotter, S. Seeliger, F. Schonlau, J. Roth, R. Hallmann, T. A. Luger, C. Sorg, and G. Kolde. 2001. Different pathways leading to cutaneous leukocytoclastic vasculitits in mice. Exp Dermatol 10:391-404.). Briefly, female BALB/c mice (22-26 g, Taconic) were injected with saline or Compound VIf (i.p., at the indicated doses), and then injected s.c. into the pinnae of the ear with 20 Φg LPS (preparatory dose). One day later, mice (4 per group) were injected either with vehicle (saline) or […] (i.p., at the indicated doses) 15 min prior to challenge with LPS (150 Φg, i.p.) To generate a localized vasculitic reaction. Five hours later, mice were sacrificed by CO2 asphyxiation, and the ears were excised and cut in half longitudinally. Ears were flash frozen in liquid nitrogen and stored at −80 EC. Each experiment was repeated twice. […]
After immunostaining, slides were counterstained with H&E, dehydrated, and mounted with permount. For enumeration of positive staining, three fields per section (three sections per sample) were assessed at 200× magnification and scored as the average number (+SD) of VCAM-1 or E-selectin positive capillaries/vessels. […]

[1] = system: female Swiss Webster mice; assay: Carrageenan air pouch model, pouch fluid cytokines by ELISA; format: in vivo; conditions: 12 mg/kg i.p.
[2] = system: α-bungarotoxin sensitive receptor on the RAW 264.7 cells; format: cell-based, murine

Compound: c1ccc(C2CC(c3cccnc3)=NO2)nc1 (centres unmarked) [(VI d)]
- TNF release (TNF): inhibited TNF release in a dose dependent manner
- efficacy on TNF release compared with control (nicotine) (TNF): comparable to or better than that of the control

Compound: c1cncc(C2=NOC(c3ccncc3)C2)c1 (centres unmarked) [Compound (VI f)]
- E-selectin protein expression by the endothelium (female BALB/c mice): reduced
- VCAM-1 protein expression by the endothelium (female BALB/c mice): reduced
- reduction of pouch fluid levels of MCP-1 [1]: 20% and 30%
- reduction of pouch TNF levels ([1]; compared to vehicle-treated controls): 40%
- pouch TNF level, % of control ([1]; control 100±7%): 60±11%

Compound: α-bungarotoxin
- effect on the inhibition of LPS-mediated TNFα release by compound (VI f) [2]: partially abrogated the inhibitory effect
